Experimental data from paper PMC2991053 (Chemistry & biology, 2010).
Like-named read-outs stand apart in the source and are kept apart here.

Legend:
TfIMPDH = TfIMPDH (Tritrichomonas foetus, UniProt P50097); details: cited from earlier work; for Ki: TfIMPDH, ref Riera, et al., 2008
SpIMPDH = SpIMPDH (Streptococcus pyogenes, UniProt P0C0H6); test: biochemical
EcIMPDH = EcIMPDH (Escherichia coli, UniProt P0ADG7); test: IMPDH inhibition, E. coli enzyme; type: biochemical
HpIMPDH = target: T1, HpIMPDH (Helicobacter pylori, UniProt P56088); test: IMPDH inhibition, H. pylori enzyme; type: biochemical
T1 sequence (P56088 1-481): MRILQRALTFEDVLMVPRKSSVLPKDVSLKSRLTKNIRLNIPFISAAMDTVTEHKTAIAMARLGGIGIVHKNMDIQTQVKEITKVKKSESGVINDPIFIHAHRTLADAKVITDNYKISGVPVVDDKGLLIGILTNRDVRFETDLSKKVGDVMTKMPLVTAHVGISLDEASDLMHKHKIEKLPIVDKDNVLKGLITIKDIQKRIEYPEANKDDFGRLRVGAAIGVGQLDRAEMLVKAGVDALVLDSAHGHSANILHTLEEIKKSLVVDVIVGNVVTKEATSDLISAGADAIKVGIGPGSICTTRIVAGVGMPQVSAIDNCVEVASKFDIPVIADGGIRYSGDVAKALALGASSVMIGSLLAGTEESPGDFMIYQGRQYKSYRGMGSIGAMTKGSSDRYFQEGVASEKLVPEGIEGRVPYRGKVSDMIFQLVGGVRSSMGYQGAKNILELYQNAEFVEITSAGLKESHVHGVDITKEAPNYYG

EcIMPDH-S250A/L444Y = EcIMPDH-S250A/L444Y (Escherichia coli, UniProt P0ADG7, L444Y/S250A); test: biochemical
Sequence of EcIMPDH-S250A/L444Y (P0ADG7 whole entry S250A/L444Y): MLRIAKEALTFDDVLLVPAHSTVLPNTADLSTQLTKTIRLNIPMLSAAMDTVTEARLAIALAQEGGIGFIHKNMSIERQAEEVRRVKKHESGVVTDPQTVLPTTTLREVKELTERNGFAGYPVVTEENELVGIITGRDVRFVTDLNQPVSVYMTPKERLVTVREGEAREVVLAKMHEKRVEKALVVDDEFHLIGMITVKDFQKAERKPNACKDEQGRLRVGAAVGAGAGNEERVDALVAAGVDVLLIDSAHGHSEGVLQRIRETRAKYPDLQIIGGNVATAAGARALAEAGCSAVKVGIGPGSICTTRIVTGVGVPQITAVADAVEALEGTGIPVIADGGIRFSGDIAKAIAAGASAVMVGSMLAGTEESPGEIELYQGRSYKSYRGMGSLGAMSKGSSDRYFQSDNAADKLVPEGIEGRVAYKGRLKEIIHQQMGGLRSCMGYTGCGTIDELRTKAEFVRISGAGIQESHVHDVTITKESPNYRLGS

EcIMPDH-S250A = EcIMPDH-S250A (Escherichia coli, UniProt P0ADG7, S250A); test: biochemical
Sequence of EcIMPDH-S250A (P0ADG7 whole entry S250A): as the sequence (P0ADG7 whole entry S250A/L444Y) above, with Y444L counted along it

BbIMPDH = target: T2, BbIMPDH (Borreliella burgdorferi, UniProt P49058); test: IMPDH inhibition, B. burgdorferi enzyme; type: biochemical
T2 sequence (P49058 1-404): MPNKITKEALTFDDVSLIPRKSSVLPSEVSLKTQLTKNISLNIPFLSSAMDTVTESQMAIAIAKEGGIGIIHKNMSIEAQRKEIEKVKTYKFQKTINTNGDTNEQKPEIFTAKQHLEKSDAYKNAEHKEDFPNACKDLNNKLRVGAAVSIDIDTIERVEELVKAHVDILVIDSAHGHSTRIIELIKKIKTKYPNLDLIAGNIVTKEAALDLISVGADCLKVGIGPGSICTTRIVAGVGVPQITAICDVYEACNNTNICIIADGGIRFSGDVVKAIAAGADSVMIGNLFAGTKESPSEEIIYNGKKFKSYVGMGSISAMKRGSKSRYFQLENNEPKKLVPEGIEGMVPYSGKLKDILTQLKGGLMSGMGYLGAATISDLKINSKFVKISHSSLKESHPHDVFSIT

CpIMPDH = target: T3, CpIMPDH (Cryptosporidium parvum, UniProt Q8T6T2); details: cited from earlier work
T3 sequence (Q8T6T2 1-400): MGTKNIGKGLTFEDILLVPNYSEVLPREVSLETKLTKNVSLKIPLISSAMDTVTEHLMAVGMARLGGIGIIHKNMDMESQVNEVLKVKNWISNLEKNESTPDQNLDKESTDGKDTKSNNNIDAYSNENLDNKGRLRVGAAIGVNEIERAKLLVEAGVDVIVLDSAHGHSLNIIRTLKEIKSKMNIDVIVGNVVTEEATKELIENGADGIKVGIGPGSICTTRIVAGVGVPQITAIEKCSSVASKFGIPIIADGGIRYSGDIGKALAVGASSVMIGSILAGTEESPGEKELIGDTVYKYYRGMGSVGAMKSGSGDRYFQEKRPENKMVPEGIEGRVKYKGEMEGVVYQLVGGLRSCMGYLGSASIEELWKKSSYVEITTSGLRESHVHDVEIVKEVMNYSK

LdIMPDH = LdIMPDH (Leishmania donovani, UniProt P21620); test: IMPDH inhibition, L. donovani enzyme; type: biochemical
Sequence of LdIMPDH (P21620 whole entry): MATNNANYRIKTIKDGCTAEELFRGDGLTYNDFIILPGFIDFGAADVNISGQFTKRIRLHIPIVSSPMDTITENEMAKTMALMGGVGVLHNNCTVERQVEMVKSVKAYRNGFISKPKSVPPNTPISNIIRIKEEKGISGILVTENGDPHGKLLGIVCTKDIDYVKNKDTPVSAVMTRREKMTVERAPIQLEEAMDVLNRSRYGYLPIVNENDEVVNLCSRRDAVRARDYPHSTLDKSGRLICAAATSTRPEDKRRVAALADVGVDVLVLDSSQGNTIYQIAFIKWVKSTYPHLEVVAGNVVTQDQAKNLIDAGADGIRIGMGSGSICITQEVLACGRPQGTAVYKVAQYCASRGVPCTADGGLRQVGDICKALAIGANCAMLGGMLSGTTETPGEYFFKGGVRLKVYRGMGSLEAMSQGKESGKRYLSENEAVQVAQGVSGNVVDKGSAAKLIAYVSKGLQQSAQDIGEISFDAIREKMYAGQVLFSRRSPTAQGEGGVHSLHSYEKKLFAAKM

Sequence of TfIMPDH (P50097 whole entry): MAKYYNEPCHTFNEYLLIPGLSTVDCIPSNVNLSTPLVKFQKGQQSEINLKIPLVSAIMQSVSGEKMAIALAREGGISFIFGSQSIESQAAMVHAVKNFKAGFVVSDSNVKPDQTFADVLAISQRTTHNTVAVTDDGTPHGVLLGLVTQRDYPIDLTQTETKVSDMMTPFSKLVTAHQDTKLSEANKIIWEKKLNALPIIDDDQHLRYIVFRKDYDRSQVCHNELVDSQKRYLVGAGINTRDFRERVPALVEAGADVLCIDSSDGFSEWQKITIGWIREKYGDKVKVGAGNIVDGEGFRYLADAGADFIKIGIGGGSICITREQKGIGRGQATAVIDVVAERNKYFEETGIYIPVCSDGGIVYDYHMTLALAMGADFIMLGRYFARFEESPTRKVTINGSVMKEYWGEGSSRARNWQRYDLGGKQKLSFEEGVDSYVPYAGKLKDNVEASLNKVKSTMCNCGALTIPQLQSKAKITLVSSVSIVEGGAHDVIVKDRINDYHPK
Sequence of EcIMPDH (P0ADG7 whole entry): as the sequence (P0ADG7 whole entry S250A/L444Y) above, with A250S, Y444L counted along it
Sequence of SpIMPDH (P0C0H6 whole entry): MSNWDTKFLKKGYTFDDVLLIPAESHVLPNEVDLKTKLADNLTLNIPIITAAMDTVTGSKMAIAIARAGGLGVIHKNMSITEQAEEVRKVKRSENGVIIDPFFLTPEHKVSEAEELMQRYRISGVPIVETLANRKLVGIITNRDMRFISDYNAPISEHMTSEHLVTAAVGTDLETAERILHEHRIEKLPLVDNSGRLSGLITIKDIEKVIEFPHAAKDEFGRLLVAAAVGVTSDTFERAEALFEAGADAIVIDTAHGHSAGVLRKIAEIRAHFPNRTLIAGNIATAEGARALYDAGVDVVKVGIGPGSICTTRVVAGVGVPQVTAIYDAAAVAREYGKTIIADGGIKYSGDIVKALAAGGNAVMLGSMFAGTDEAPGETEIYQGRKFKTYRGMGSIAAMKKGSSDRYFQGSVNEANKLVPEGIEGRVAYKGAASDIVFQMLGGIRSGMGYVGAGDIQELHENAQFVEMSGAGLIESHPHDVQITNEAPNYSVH

For COc1c(C)c2c(c(O)c1C/C=C(\C)CCC(=O)O)C(=O)OC2 [mycophenolic acid], the “Fold more resistant than human IMPDH2 (TfIMPDH)” value (TfIMPDH; TfIMPDH vs human IMPDH2, ref Digits and Hedstrom, 2000) is listed as 400 fold.
In the case of Nc1ncnc2c1ncn2[C@@H]1O[C@H](COP(=O)(O)OP(=O)(O)O)[C@@H](O)[C@H]1O [ADP], the Ki (SpIMPDH; read-out: Ki ADP, SpIMPDH) is reported as 13 ± 2 mM, the Ki (EcIMPDH; read-out: Ki ADP, EcIMPDH) is reported as 10 ± 2 mM and the Ki (HpIMPDH; read-out: Ki ADP, HpIMPDH) is reported as 6 ± 0.5 mM. For the same compound, the Ki (EcIMPDH-S250A/L444Y; read-out: Ki ADP, EcIMPDH-S250A/L444Y) was 4.1 ± 0.7 mM, the Ki (EcIMPDH-S250A; read-out: Ki ADP, EcIMPDH-S250A) was 0.1 ± 0.01 mM and the Ki (TfIMPDH; read-out: Ki ADP) was 31 ± 2 mM. For the same compound, the Ki (BbIMPDH; read-out: Ki ADP, BbIMPDH) was 7.4 ± 0.6 mM, the Ki (CpIMPDH; read-out: Ki ADP, ref Riera, et al., 2008) was 42 ± 6 mM and the Ki (LdIMPDH; read-out: Ki ADP, LdIMPDH) was 15 ± 2 mM.
Work on NC(=O)c1csc([C@@H]2O[C@H](CO)[C@@H](O)[C@H]2O)n1 [Tzf, tiazofurin] yielded a Ki (SpIMPDH) of 8 ± 1 mM, a Ki (EcIMPDH) of 5.3 ± 0.6 mM and a Ki (HpIMPDH) of 1.3 ± 0.1 mM. The Ki (EcIMPDH-S250A/L444Y) was 1.1 ± 0.2 mM, the Ki (EcIMPDH-S250A) was 2.5 ± 0.3 mM and the Ki (TfIMPDH; read-out: Ki Tzf) was 69 ± 9 mM. For the same compound, the Ki (BbIMPDH) was 1.1 ± 0.2 mM, the Ki (CpIMPDH; read-out: Ki Tzf, ref Riera, et al., 2008) was 1.5 ± 0.1 mM and the Ki (LdIMPDH) was 8.3 ± 0.7 mM.
